Data: publication PMC11995724, “Antibiotic target discovery by integrated phenotypic and activity-based profiling of electrophilic fragments” (Cell chemical biology, 2025)

Experiment: in vitro
Conditions: human, hek293t cells

Row | SMILES | viability at 48 h, 25 µM
1 | CC(Cl)C(=O)NCc1nc2cccnc2n1C (centres unmarked) [7-O17, 2-chloro-N-({3-methyl-3H-imidazo[4,5-b]pyridin-2-yl}methyl)propanamide] | 103%
2 | C=CC(=O)Nc1cnc(C2CCCC2)nc1 [1-G17, N-(2-cyclopentylpyrimidin-5-yl)prop-2-enamide] | 33%
3 | CC(C)c1ccc(CCNC(=O)CCl)cc1 [6-I16, 2-chloro-N-{2-[4-(propan-2-yl)phenyl]ethyl}acetamide] | 71%
4 | C=CC(=O)N(C)CC(=O)NC1CCCN(c2cc(C)nc(C)n2)C1 (centres unmarked) [3-A12, N-({[1-(2,6-dimethylpyrimidin-4-yl)piperidin-3-yl]carbamoyl}methyl)-N-methylprop-2-enamide] | 74.4%
5 | CCNC(=O)C(C#N)=Cc1c(N2CCOCC2)nc2ccccn2c1=O [9-O06, 2-cyano-N-ethyl-3-[2-(morpholin-4-yl)-4-oxo-4H-pyrido[1,2-a]pyrimidin-3-yl]prop-2-enamide] | 137%
6 | CC(Cl)C(=O)NC(C)C(c1ccccc1Cl)n1cccn1 (centres unmarked) [6-P09, 2-chloro-N-[1-(2-chlorophenyl)-1-(1H-pyrazol-1-yl)propan-2-yl]propanamide] | 119%
7 | CC(Cl)C(=O)NC(=O)NCc1cccs1 (centres unmarked) [6-E05, 3-(2-chloropropanoyl)-1-[(thiophen-2-yl)methyl]urea] | 106%
8 | C=CC(=O)NCCc1cnc2c(Cl)cnn2c1 [1-L06, N-(2-{3-chloropyrazolo[1,5-a]pyrimidin-6-yl}ethyl)prop-2-enamide] | 74.5%
9 | Cc1cc(C(=O)CCl)c(C)n1Cc1ccccc1 [10-M14, 1-(1-benzyl-2,5-dimethyl-1H-pyrrol-3-yl)-2-chloroethan-1-one] | 78.4%
10 | C=CC(=O)Nc1c(OC)nc(Cl)nc1OC [1-B14, N-(2-chloro-4,6-dimethoxypyrimidin-5-yl)prop-2-enamide] | 60.2%
11 | N#CC(=Cc1ccc(F)c(F)c1)C(=O)NC1CCCCC1 [9-J22, 2-cyano-N-cyclohexyl-3-(3,4-difluorophenyl)prop-2-enamide] | 101%
12 | Cc1cc(CN(C(=O)CCl)c2csnc2C)cs1 [5-C12, 2-chloro-N-(3-methyl-1,2-thiazol-4-yl)-N-[(5-methylthiophen-3-yl)methyl]acetamide] | 0.6%
13 | COc1cc(C=C(C#N)C(=O)Nc2cccc3ncccc23)ccc1O [9-F22, 2-cyano-3-(4-hydroxy-3-methoxyphenyl)-N-(quinolin-5-yl)prop-2-enamide] | 112%
14 | O=C1C=CC(=O)N1c1cccc(O)c1 [10-O07, 1-(3-hydroxyphenyl)-2,5-dihydro-1H-pyrrole-2,5-dione] | 68.4%
15 | Cc1cc(C(=O)CCl)c(C)n1-c1ccc(OC(F)F)c(Cl)c1 [10-K04, 2-chloro-1-{1-[3-chloro-4-(difluoromethoxy)phenyl]-2,5-dimethyl-1H-pyrrol-3-yl}ethan-1-one] | 0.0199%
16 | Cc1cccc(C)c1NC(=O)CN(C)C(=O)CCl [5-A13, 2-chloro-N-{[(2,6-dimethylphenyl)carbamoyl]methyl}-N-methylacetamide] | 0.212%
17 | COc1ccc([C@H]2C[C@H](NC(=O)C(C)Cl)C2)cc1F (some centres unmarked) [6-F17, 2-chloro-N-[(1r,3r)-3-(3-fluoro-4-methoxyphenyl)cyclobutyl]propanamide] | 91.5%
18 | Cc1ccc(C)c(Sc2ccc(NC(=O)CCl)cc2)c1 [4-H09, 2-chloro-N-{4-[(2,5-dimethylphenyl)sulfanyl]phenyl}acetamide] | -0.157%
19 | C=CC(=O)NC(c1nc(C)cs1)C(F)(F)F (centres unmarked) [2-I17, N-[2,2,2-trifluoro-1-(4-methyl-1,3-thiazol-2-yl)ethyl]prop-2-enamide] | 102%
20 | Cc1cc(CN(C(=O)CCl)c2ccc(F)cc2)nn1C [5-E14, 2-chloro-N-[(1,5-dimethyl-1H-pyrazol-3-yl)methyl]-N-(4-fluorophenyl)acetamide] | 0.639%
